Results taken from ChEMBL document CHEMBL5113481, “Design, synthesis and biological evaluation of quinoline-2-carbonitrile-based hydroxamic acids as dual tubulin polymerization and histone deacetylases inhibitors” (Eur J Med Chem, 2022).
The source made the active and inactive calls. No cut-off for these calls is given here.

Experiments:
K562 [1] = test: Antiproliferative activity against human K562 cells after 72 hrs by CellTiter Glo assay; format: functional, cell-based; settings: K562, 72 h
K562 [2] = test: Antiproliferative activity against imatinib-resistant human K562 cells over expressing MDR1 after 72 hrs by CellTiter Glo assay; format: functional, cell-based; settings: K562, 72 h
SK-OV-3 = test: Antiproliferative activity against human SK-OV-3 cells after 72 hrs by CellTiter Glo assay; format: functional, cell-based; settings: SK-OV-3, 72 h
A549 = test: Antiproliferative activity against human A549 cells after 72 hrs by CellTiter Glo assay; format: functional, cell-based; settings: A549, 72 h
MDA-MB-231 = test: Antiproliferative activity against human MDA-MB-231 cells after 72 hrs by CellTiter Glo assay; format: functional, cell-based; settings: MDA-MB-231, 72 h
HT-29 [3] = test: Antiproliferative activity against human HT-29 cells after 72 hrs by CellTiter Glo assay; format: functional, cell-based; settings: HT-29, 72 h
HT-29 [4] = test: Cell cycle arrest in human HT-29 cells assessed as accumulation of cells in G2/M phase at 0.1 to 5 nM measured after 24 hrs by PI staining based flow cytometry method; format: functional; settings: dose 0.1-5 nM, DDE = dose-dependent effect
HT-29 [5] = test: Induction of mitochondrial dysfunction in human HT-29 cells at 2 nM measured after 48 hrs by JC-1 staining based flow cytometry; format: functional, cell-based
Histone deacetylase 8 = molecular target: T1, Histone deacetylase 8 (Homo sapiens, UniProt Q9BY41); test: Inhibition of HDAC8 (unknown origin) measured by fluorometry assay
T1 sequence (Q9BY41 whole entry): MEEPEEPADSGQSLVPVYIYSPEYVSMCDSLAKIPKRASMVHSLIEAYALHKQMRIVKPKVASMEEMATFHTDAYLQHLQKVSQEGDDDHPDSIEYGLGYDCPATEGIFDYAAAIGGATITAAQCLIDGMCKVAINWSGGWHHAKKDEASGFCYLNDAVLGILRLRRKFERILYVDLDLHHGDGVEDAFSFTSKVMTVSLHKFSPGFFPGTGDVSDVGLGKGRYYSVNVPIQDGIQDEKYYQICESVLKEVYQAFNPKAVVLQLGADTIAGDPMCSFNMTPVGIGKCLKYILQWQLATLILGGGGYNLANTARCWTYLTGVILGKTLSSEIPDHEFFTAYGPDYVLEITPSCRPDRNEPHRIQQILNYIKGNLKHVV

HT-29 [6] = test: Induction of DNA damage in human HT-29 cells at 0.5 to 10 nM assessed as increase in gamma-H2AX level and measured after 24 hrs by Western blot analysis; format: functional, cell-based; settings: dose 0.5-10 nM
Tubulin (Homo sapiens) = Tubulin (Homo sapiens) (UniProt P68371+Q9H4B7+P0DPH7+P68366+Q13509+Q71U36+P04350+Q3ZCM7+P07437+P68363+Q9BQE3+Q6PEY2+Q13885+Q9BVA1+Q9BUF5); test: Inhibition of tubulin polymerization in human MDA-MB-231 cells assessed as microtubule network polymerization at 250 nM after 30 mins by immunofluorescence analysis; format: cell-based
Tubulin = test: Inhibition of tubulin polymerization in human HeLa cells assessed as microtubule network polymerization after 30 mins by immunofluorescence analysis; format: cell-based
[7] = Metabolic stability in rat liver microsomes assessed as half-life measured upto 6 hrs in presence of NADPH generating system by HPLC-MS/MS analysis; format: ADME, Microsome
[8] = Metabolic stability in rat liver microsomes assessed as intrinsic clearance per mg protein measured upto 6 hrs in presence of NADPH generating system by HPLC-MS/MS analysis; format: ADME, Microsome; settings: read-out: CLH
[9] = Antiproliferative activity against mouse MCA-205 cells after 72 hrs by CellTiter Glo assay; format: functional, cell-based; settings: MCA-205, 72 h
[10] = Antitumor activity against mouse MCA-205 cells allografted in female C57BL/6 mouse assessed as decrease in tumor growth at 0.25 to 0.5 mg/kg, IT(Intratumoral); format: functional; set-up: scale not given: the % may be the effect or the level left; settings: dose lower […], dose upper 0.5 mg/kg
MCA-205 = test: Antitumor activity against mouse MCA-205 cells allografted in female C57BL/6 mouse assessed as complete tumor regression at 0.5 mg/kg, IT(Intratumoral); format: functional, organism-based
[11] = Antitumor activity against mouse MCA-205 cells allografted in female C57BL/6 mouse assessed as tumor regression at […], IT(Intratumoral); format: functional

## COc1ccc(N(C)c2cc(C#N)nc3ccccc23)cc1/C=C/C(=O)NO
K562 [1]
  IC50: 0.35 nM
K562 [2]
  IC50: 0.56 nM
SK-OV-3
  IC50: 0.6 nM
A549
  IC50: 0.84 nM
MDA-MB-231
  IC50: 0.7 nM
HT-29 [3]
  IC50: 0.62 nM
HT-29 [4]
  Activity: Dde
HT-29 [5]
  Activity: Active
Histone deacetylase 8
  IC50: 150 nM
HT-29 [6]
  Activity: Active
Tubulin (Homo sapiens)
  inhibition: Active
Tubulin
  IC50: 20 nM
[7]
  half-life: 6.6 h
[8]
  microsomal CLint: 1.75 µL/min/mg
[9]
  IC50: 2.78 nM
[10]
  Activity: 70%
MCA-205
  Activity: Active
[11]
  Activity: 40%
